Measurements as given in patent US20100047841A1, “SYNTHESIS OF DESACETOXYTUBULYSIN H AND ANALOGS THEREOF” (University of Pittsburgh-of the Commonwealth System of …, priority 2007, published 2010).
“Also recorded” adds a separate entry of the source. Structures can show the parent of a compound that is named as a salt.

Columns and labels:
[1] = test system: HeLa human cervical carcinoma cells; assay: High-content analysis of mitotic arrest in HeLa cells; type: cell-based; conditions: for Microtubule Density MDEC (minimum detectable effective concentration) / Mitotic Index MDEC (percentage of phosphohistone H3-positive cells) / Nuclear Condensation MDEC (minimum detectable effective concentration) / EC50: 20 hours treatment, average of four experiments ± SD; for EC50: Homo sapiens, read-out: Cell Density EC50; for activity in high-content analysis of mitotic arrest (in words): all endpoints measured
Protocol: The effects of tubulysin analogs on mitotic arrest and cellular microtubules were studied. HeLa human cervical carcinoma cells (10,000 per well) were plated in collagen-1 coated 384-well microplates and were treated with vehicle (DMSO) or ten two-fold concentration gradients of test agents within 4-6 hours of seeding. Cells were incubated for 20 hours at 37° C., fixed with formaldehyde, and labeled with 10 μg/mL Hoechst 33342 in Hank's balanced salt solution (HBSS). Cells were permeabilized with 0.5% (w/w) Triton X-100 for 5 min at room temperature and incubated with a primary antibody cocktail consisting of an HBSS solution containing rabbit polyclonal anti-phosphohistone H3 (Ser10, 1:500, Upstate), and mouse monoclonal anti-α-tubulin (1:3000, Sigma), followed by a mixture of FITC-labeled donkey anti-mouse IgG (1:500) and Cy3-labeled donkey anti-rabbit IgG (1:500). Cells were rinsed once with HBSS and stored at 4° C. in HBSS until analysis.
Microplates were analyzed with an ArrayScanII instrument (Cellomics, Pittsburgh, Pa.) using the Target Activation Bioapplication (Cellomics, Inc.). Within the application, 1,000 individual cells in each well were imaged at three different wavelengths, using an Omega XF93 filter set at excitation/emission wavelengths of 350/461 nm (Hoechst), 494/519 nm (FITC), and 556/573 nm (Cy3). The following parameters were used for data analysis: average nuclear intensity, nuclei per field, average nuclear FITC intensity, and average nuclear Cy3 intensity. A nuclear mask was generated from Hoechst 33342-stained nuclei. Microtubule density and histone H3 phosphorylation were measured in the FITC and Cy3 channel, respectively. Microtubule density was defined as the average green (FITC) pixel intensity in an area defined by the nuclear mask. For determination of mitotic index and nuclear condensation, thresholds for Hoechst 33342 and phosphohistone-H3 intensities were defined as the average Hoechst 33342 or Cy3 intensity plus one standard deviation from twenty-eight vehicle-treated wells placed in the center of the microplate.
Cells were classified as positive if their average Hoechst 33342 or Cy3 intensity exceeded this threshold. To illustrate visually the effects of test agents on cellular microtubules and mitotic arrest, the identical 384-well plates then were used to acquire higher resolution images of selected wells.
Asynchronously growing HeLa cells were treated for 20 hours with each compound in collagen-coated 384 well microplates, fixed, and incubated with primary antibodies for tubulin and the mitotic marker protein phosphohistone H3, followed by FITC and Cy3-conjugated secondary antibodies, respectively. Cells were detected by nuclear counterstaining with Hoechst 33342, which also provided information about chromatin condensation and cell density as markers of cell death.

[2] = test system: bovine brain tubulin (vinca domain); assay: Inhibition of [3H]vinblastine binding to tubulin (centrifugal gel filtration); conditions: for % Inhibition of [3H]vinblastine binding by 5 μM test agent / IC50: 10 μM radiotracer, 10 μM tubulin; for % Inhibition of [3H]vinblastine binding by 5 μM test agent: 30 min room temperature; for IC50: test agent 0.5-100 μM, Hill fit
Protocol: (§1) The new compounds were tested for their abilities to bind at the vinca domain and at the related peptide/depsipeptide site on tubulin using a modification of a centrifugal gel filtration method described by Bai et al., Mol. Pharmacol. 7: 965-76 (1995). In the initial screens, each 0.32 mL reaction mixture contained 5 μM test agent and 10 μM [^3H]vinblastine (specific activity 8.50 Ci/mmol; GE Healthcare Bio-Sciences, Picataway, N.J.) or 10 μM [^3H]dolastatin 10 (specific activity 1.96 Ci/mmol; obtained from the Drug Synthesis and Chemistry Branch of the National Cancer Institute) predissolved in DMSO (final concentration 1% v/v) and 10 μM bovine brain tubulin, all in 0.1 M 2-(4-morpholino)ethanesulfonic acid (Mes), pH 6.9, containing 0.5 mM MgCl2. The mixture was incubated for 30 min at room temperature. Two 0.15 mL aliquots of the reaction mixture were applied to duplicate 2 mL beds of pre-swollen (in Mes, pH 6.9, containing 0.5 mM MgCl2) Sephadex G-50 (superfine) contained in Handee columns (Pierce Biotechnology, Rockford, Ill.). The columns were centrifuged at 800×g for 4 minutes and the protein concentration in the effluent was determined, using the bicinchoninic acid assay. The amount of radiolabeled ligand bound to tubulin was determined using scintillation spectrometry. Each value represents the mean ±SD of four determinations. […] Inhibition was calculated as the percent difference relative to that of the control incubation with DMSO (i.e., without test agent—assigned as 0% inhibition). […] GraphPad Prism was used to fit the resulting data to the Hill equation to determine the IC50 values.

[3] = test system: bovine brain tubulin (peptide/depsipeptide site); assay: Inhibition of [3H]dolastatin 10 binding to tubulin (centrifugal gel filtration); conditions: 10 μM radiotracer, 10 μM tubulin; for % Inhibition of [3H]dolastatin 10 binding by 5 μM test agent: 30 min room temperature; for IC50: test agent 0.5-100 μM, Hill fit
Protocol: as §1

Compound: CCC(C)[C@H](NC(=O)CN(C)C)C(=O)N(C)[C@H](C[C@H](OC(C)=O)c1nc(C(=O)N[C@@H](Cc2ccccc2)C[C@H](C)C(=O)O)cs1)C(C)C (stereo partly drawn) [WZY-III-64A, (2S,4R)-4-(2-((6S,9R,11S)-6-sec-Butyl-9-isopropyl-2,8-dimethyl-4,7,13-trioxo-12-oxa-2,5,8-triazatetradecan-11-yl)thiazole-4-carboxamido)-2-methyl-5-phenylpentanoic acid]
- Microtubule Density MDEC (minimum detectable effective concentration) [1]: 56.6 ± 30.9 nM
- Mitotic Index MDEC (percentage of phosphohistone H3-positive cells) [1]: 23.9 ± 5.8 nM
- Nuclear Condensation MDEC (minimum detectable effective concentration) [1]: 32.4 ± 8.6 nM
- EC50 [1]: 0.0957 ± 0.0208 µM
- activity in high-content analysis of mitotic arrest (in words) [1]: about five-fold less active
- % Inhibition of [3H]vinblastine binding by 5 μM test agent [2]: 2 ± 5%
- IC50 [2]: > 50 µM
- % Inhibition of [3H]dolastatin 10 binding by 5 μM test agent [3]: −11 ± 10%

Compound: CCC(C)[C@H](NC(=O)[C@H]1CCCCN1C)C(=O)N(C)[C@H](C[C@@H](OC(C)=O)c1nc(C(=O)N[C@@H](Cc2ccccc2)C[C@H](C)C(=O)O)cs1)C(C)C (stereo partly shown) [WZY-III-63C, N^14-Desacetoxytubulysin H trifluoroacetic acid salt]
- Microtubule Density MDEC (minimum detectable effective concentration) [1]: 0.16 ± 0.05 nM
- Mitotic Index MDEC (percentage of phosphohistone H3-positive cells) [1]: 0.10 ± 0.02 nM
- Nuclear Condensation MDEC (minimum detectable effective concentration) [1]: 0.13 ± 0.04 nM
- EC50 [1]: 0.00037 ± 9e-05 µM
- activity in high-content analysis of mitotic arrest (in words) ([1]; trifluoroacetic acid salt): active in the picomolar range; also recorded: almost two orders of magnitude more potent than vincristine or paclitaxel; also recorded: activity in the picomolar range
- potency relative to paclitaxel, vincristine, or WZY-III-69A ([1]; all of the endpoints measured): ~50 fold
- ability to inhibit [3H]vinblastine binding to isolated tubulin (in words) [2]: equipotent to dolastatin 10
- % Inhibition of [3H]vinblastine binding by 5 μM test agent [2]: 50 ± 4%
- IC50 [2]: 5.6 ± 0.5 µM
- % Inhibition of [3H]dolastatin 10 binding by 5 μM test agent [3]: 31 ± 3%
- IC50 [3]: 10 ± 1 µM

Compound: CCC(C)[C@H](NC(=O)CN(C)C)C(=O)N(C)[C@H](C[C@@H](OC(C)=O)c1nc(C(=O)N[C@@H](Cc2ccccc2)C[C@H](C)C(=O)O)cs1)C(C)C (stereo partly drawn) [WZY-III-69A, (2S,4R)-4-(2-((6S,9R,11R)-6-sec-Butyl-9-iso-propyl-2,8-dimethyl-4,7,13-trioxo-12-oxa-2,5,8-triazatetradecan-11-yl)thiazole-4-carboxamido)-2-methyl-5-phenylpentanoic acid]
- Microtubule Density MDEC (minimum detectable effective concentration) [1]: 15.1 ± 11.1 nM
- Mitotic Index MDEC (percentage of phosphohistone H3-positive cells) [1]: 2.5 ± 0.4 nM
- Nuclear Condensation MDEC (minimum detectable effective concentration) [1]: 12.4 ± 10.2 nM
- EC50 [1]: 0.0175 ± 0.0066 µM
- activity in high-content analysis of mitotic arrest (in words) [1]: as active as paclitaxel or vincristine
- % Inhibition of [3H]vinblastine binding by 5 μM test agent [2]: 43 ± 1%
- IC50 [2]: 8.8 ± 1.6 µM
- % Inhibition of [3H]dolastatin 10 binding by 5 μM test agent [3]: 4 ± 3%
- IC50 [3]: 64 ± 9 µM
